Test results as given in US4110327A, “2,3 Diketo-piperazinocarbonylamino alkanoic acids and derivatives” (Toyama Chemical Co., Ltd., priority 1974, dated 1978).
In brackets after ≈: the same amount, converted by molar mass.

Tests used:
Type in all cases: cell-based
Pseudomonas aeruginosa = test: MIC against clinical isolates; conditions: unit assumed
Proteus vulgaris 3027 = test: MIC against standard strain, plate method; conditions: Proteus vulgaris 3027, standard strain; unit assumed
Description: (§1) The minimum inhibitory concentrations (MIC) was determined by the plate method disclosed in "Chemotherapy" (Japan), Vol. 16, (1968), pages 98 - 99. The culture medium used was a Heart infusion agar (pH 7.4). The number of the cells per plate used in the inoculum as 10^4 (10^6 cells/ml).

Klebsiella pneumoniae [1] = test: MIC against standard strain, plate method; conditions: unit assumed
Description: as §1

[2] = system: Staphylococcus aureus 209p; test: MIC against standard strain, plate method; conditions: unit assumed
Description: as §1

[3] = system: Pseudomonas aeruginosa I.F.O.; test: MIC against standard strain, plate method; conditions: unit assumed
Description: as §1

Escherichia coli NIHJ = test: MIC against standard strain, plate method; conditions: unit assumed
Description: as §1

Escherichia coli = test: MIC against clinical isolates; conditions: unit assumed
Staphylococcus aureus = test: MIC against clinical isolates; conditions: unit assumed
Klebsiella pneumoniae [4] = test: MIC against clinical isolates; conditions: unit assumed
Salmonella typhi-murium = test: MIC against clinical isolates; conditions: unit assumed
Shigella flexneri = test: MIC against clinical isolates; conditions: clinical isolate JS 11215; unit assumed
Description: as §1
(§2) MIC was determined in the same manner as in the preceding paragraph (1).

Shigella sonnei = test: MIC against clinical isolates; conditions: clinical isolate JS 11232; unit assumed
Description: as §1, §2

Salmonella typhi = test: MIC against clinical isolates; conditions: unit assumed

CC(=O)OCC1=C(C(=O)O)N2C(=O)[C@@H](NC(=O)Cc3cccs3)[C@H]2SC1 [Sodium Cephalothin, SodiumCephalothin, reference compound] showed an MIC (Pseudomonas aeruginosa; clinical isolate GN 82) of over 200 µg/mL, an MIC (Pseudomonas aeruginosa; clinical isolate GN 163) of over 200 µg/mL and an MIC (Pseudomonas aeruginosa; clinical isolate GN 221) of over 200 µg/mL. The MIC (Pseudomonas aeruginosa; clinical isolate GN 244) was over 200 µg/mL, the MIC (Pseudomonas aeruginosa; clinical isolate GN 376) was over 200 µg/mL and the MIC (Pseudomonas aeruginosa; clinical isolate GN 383) was over 200 µg/mL. It also gave an MIC (Pseudomonas aeruginosa; clinical isolate GN 1035) of over 200 µg/mL, an MIC (Pseudomonas aeruginosa; clinical isolate GN 1091) of over 200 µg/mL and an MIC (Pseudomonas aeruginosa; clinical isolate GN 2565) of over 200 µg/mL. The MIC (Pseudomonas aeruginosa; clinical isolate GN 2987) was over 200 µg/mL, the MIC (Pseudomonas aeruginosa; clinical isolate S-1) was over 200 µg/mL and the MIC (Pseudomonas aeruginosa; clinical isolate S-2) was over 200 µg/mL. For the same compound, the MIC (Pseudomonas aeruginosa; clinical isolate S-3) was over 200 µg/mL, the MIC (Pseudomonas aeruginosa; clinical isolate S-4) was over 200 µg/mL and the MIC (Proteus vulgaris 3027) was under 1.57 µg/mL. For the same compound, the MIC (Klebsiella pneumoniae [1]) was 100 µg/mL, the MIC [2] was under 1.57 µg/mL and the MIC [3] was over 200 µg/mL. The MIC (Escherichia coli NIHJ) was under 1.57 µg/mL, the MIC (Escherichia coli; clinical isolate GN 3435) was 6.25 µg/mL and the MIC (Escherichia coli; clinical isolate GN 3452) was 12.5 µg/mL. It also gave an MIC (Escherichia coli; clinical isolate GN 3465) of 25 µg/mL, an MIC (Escherichia coli; clinical isolate GN 3481) of 12.5 µg/mL and an MIC (Escherichia coli; clinical isolate GN 3611) of 50 µg/mL. For the same compound, the MIC (Escherichia coli; clinical isolate K-1) was 6.25 µg/mL, the MIC (Escherichia coli; clinical isolate K-2) was 6.25 µg/mL and the MIC (Escherichia coli; clinical isolate K-3) was 100 µg/mL. The MIC (Escherichia coli; clinical isolate K-4) was 25 µg/mL, the MIC (Staphylococcus aureus; clinical isolate F-1) was under 0.4 µg/mL and the MIC (Staphylococcus aureus; clinical isolate F-2) was under 0.4 µg/mL. For the same compound, the MIC (Staphylococcus aureus; clinical isolate F-3) was under 0.4 µg/mL, the MIC (Staphylococcus aureus; clinical isolate F-4) was under 0.4 µg/mL and the MIC (Staphylococcus aureus; clinical isolate F-5) was 1.56 µg/mL. For the same compound, the MIC (Staphylococcus aureus; clinical isolate MS 8588) was under 0.4 µg/mL, the MIC (Staphylococcus aureus; clinical isolate MS 8596) was under 0.4 µg/mL and the MIC (Staphylococcus aureus; clinical isolate MS 8619) was under 0.4 µg/mL. For the same compound, the MIC (Staphylococcus aureus; clinical isolate MS 8684) was under 0.4 µg/mL, the MIC (Staphylococcus aureus; clinical isolate MS 8713) was under 0.4 µg/mL and the MIC (Klebsiella pneumoniae [4]; clinical isolate GN 917) was 3.13 µg/mL. For the same compound, the MIC (Klebsiella pneumoniae [4]; clinical isolate GN 4081) was 12.5 µg/mL and the MIC (Klebsiella pneumoniae [4]; clinical isolate GN 4117) was 6.25 µg/mL.
CC1(C)S[C@@H]2[C@H](NC(=O)C(C(=O)O)c3ccccc3)C(=O)N2[C@H]1C(=O)O (stereo partly shown) [Sodium Carbenicillum, reference compound] was tested, and the MIC (Salmonella typhi-murium; clinical isolate SL 858) was 12.5 µg/mL, the MIC (Salmonella typhi-murium; clinical isolate SL 2136) was over 200 µg/mL and the MIC (Shigella flexneri) was over 200 µg/mL. The MIC (Shigella sonnei) was over 200 µg/mL, the MIC (Salmonella typhi; clinical isolate SL 819) was 6.25 µg/mL and the MIC (Salmonella typhi; clinical isolate SL 2169) was 3.13 µg/mL.
For CCCCN1CCN(C(=O)N[C@@H](C(=O)N[C@@H]2C(=O)N3[C@@H]2SC(C)(C)[C@@H]3C(=O)O)c2ccccc2)C(=O)C1 [compound 14], the MIC (Pseudomonas aeruginosa; clinical isolate GN 82) was 25 µg/mL (≈ 47 µM), the MIC (Pseudomonas aeruginosa; clinical isolate GN 163) was 25 µg/mL (≈ 47 µM) and the MIC (Pseudomonas aeruginosa; clinical isolate GN 221) was 25 µg/mL (≈ 47 µM). For the same compound, the MIC (Pseudomonas aeruginosa; clinical isolate GN 376) was 50 µg/mL (≈ 94 µM), the MIC (Pseudomonas aeruginosa; clinical isolate GN 383) was 50 µg/mL (≈ 94 µM) and the MIC (Pseudomonas aeruginosa; clinical isolate GN 1035) was 50 µg/mL (≈ 94 µM). For the same compound, the MIC (Pseudomonas aeruginosa; clinical isolate GN 1091) was 25 µg/mL (≈ 47 µM), the MIC (Pseudomonas aeruginosa; clinical isolate GN 2565) was 50 µg/mL (≈ 94 µM) and the MIC (Pseudomonas aeruginosa; clinical isolate GN 2987) was 12.5 µg/mL (≈ 23.5 µM). For the same compound, the MIC (Pseudomonas aeruginosa; clinical isolate GN (number not given; Table 5-3)) was 50 µg/mL (≈ 94 µM), the MIC (Pseudomonas aeruginosa; clinical isolate S-1) was 50 µg/mL (≈ 94 µM) and the MIC (Pseudomonas aeruginosa; clinical isolate S-2) was 50 µg/mL (≈ 94 µM). The MIC (Pseudomonas aeruginosa; clinical isolate S-3) was 100 µg/mL (≈ 188 µM), the MIC (Pseudomonas aeruginosa; clinical isolate S-4) was 50 µg/mL (≈ 94 µM) and the MIC (Proteus vulgaris 3027) was under 1.57 µg/mL. The MIC [2] was under 1.57 µg/mL, the MIC [3] was 25 µg/mL (≈ 47 µM) and the MIC (Escherichia coli NIHJ) was under 1.57 µg/mL. For the same compound, the MIC (Escherichia coli; clinical isolate GN 3465) was 50 µg/mL (≈ 94 µM), the MIC (Escherichia coli; clinical isolate K-2) was 12.5 µg/mL (≈ 23.5 µM) and the MIC (Escherichia coli; clinical isolate K-3) was 200 µg/mL (≈ 376 µM). It also gave an MIC (Staphylococcus aureus; clinical isolate F-1) of 12.5 µg/mL (≈ 23.5 µM), an MIC (Staphylococcus aureus; clinical isolate F-5) of 200 µg/mL (≈ 376 µM) and an MIC (Staphylococcus aureus; clinical isolate MS 8619) of 0.79 µg/mL (≈ 1.49 µM). For the same compound, the MIC (Salmonella typhi-murium; clinical isolate SL 858) was 1.57 µg/mL (≈ 2.95 µM), the MIC (Salmonella typhi-murium; clinical isolate SL 2136) was 200 µg/mL (≈ 376 µM) and the MIC (Shigella flexneri) was 25 µg/mL (≈ 47 µM). For the same compound, the MIC (Shigella sonnei) was 25 µg/mL (≈ 47 µM), the MIC (Salmonella typhi; clinical isolate SL 819) was 6.25 µg/mL (≈ 11.8 µM) and the MIC (Salmonella typhi; clinical isolate SL 2169) was 3.13 µg/mL (≈ 5.89 µM). For the same compound, the MIC (Klebsiella pneumoniae [4]; clinical isolate GN 917) was 25 µg/mL (≈ 47 µM), the MIC (Klebsiella pneumoniae [4]; clinical isolate GN 3850) was 12.5 µg/mL (≈ 23.5 µM) and the MIC (Klebsiella pneumoniae [4]; clinical isolate GN 4081) was 50 µg/mL (≈ 94 µM). For the same compound, the MIC (Klebsiella pneumoniae [4]; clinical isolate GN 4117) was 50 µg/mL (≈ 94 µM).
In the case of Cc1nnc(SCC2=C(C(=O)O)N3C(=O)[C@@H](NC(=O)Cn4cnnn4)[C@H]3SC2)s1 [Sodium Cephazolin, SodiumCephazolin, reference compound], the MIC (Pseudomonas aeruginosa; clinical isolate GN 82) is reported as over 200 µg/mL, the MIC (Pseudomonas aeruginosa; clinical isolate GN 163) is reported as over 200 µg/mL and the MIC (Pseudomonas aeruginosa; clinical isolate GN 221) is reported as over 200 µg/mL. It also gave an MIC (Pseudomonas aeruginosa; clinical isolate GN 244) of over 200 µg/mL, an MIC (Pseudomonas aeruginosa; clinical isolate GN 376) of over 200 µg/mL and an MIC (Pseudomonas aeruginosa; clinical isolate GN 383) of over 200 µg/mL. It also gave an MIC (Pseudomonas aeruginosa; clinical isolate GN 1035) of over 200 µg/mL, an MIC (Pseudomonas aeruginosa; clinical isolate GN 1091) of over 200 µg/mL and an MIC (Pseudomonas aeruginosa; clinical isolate GN 2565) of over 200 µg/mL. For the same compound, the MIC (Pseudomonas aeruginosa; clinical isolate GN 2987) was over 200 µg/mL, the MIC (Pseudomonas aeruginosa; clinical isolate S-1) was over 200 µg/mL and the MIC (Pseudomonas aeruginosa; clinical isolate S-2) was over 200 µg/mL. For the same compound, the MIC (Pseudomonas aeruginosa; clinical isolate S-3) was over 200 µg/mL, the MIC (Pseudomonas aeruginosa; clinical isolate S-4) was over 200 µg/mL and the MIC (Proteus vulgaris 3027) was 1.57 µg/mL. The MIC (Klebsiella pneumoniae [1]) was 200 µg/mL, the MIC [2] was under 1.57 µg/mL and the MIC [3] was over 200 µg/mL. The MIC (Escherichia coli NIHJ) was under 1.57 µg/mL, the MIC (Escherichia coli; clinical isolate GN 3435) was 1.56 µg/mL and the MIC (Escherichia coli; clinical isolate GN 3452) was 1.56 µg/mL. For the same compound, the MIC (Escherichia coli; clinical isolate GN 3481) was 1.56 µg/mL, the MIC (Escherichia coli; clinical isolate GN 3611) was 25 µg/mL and the MIC (Escherichia coli; clinical isolate K-1) was 1.56 µg/mL. It also gave an MIC (Escherichia coli; clinical isolate K-2) of 1.56 µg/mL, an MIC (Escherichia coli; clinical isolate K-3) of over 200 µg/mL and an MIC (Escherichia coli; clinical isolate K-4) of 3.13 µg/mL. The MIC (Staphylococcus aureus; clinical isolate F-1) was 0.78 µg/mL, the MIC (Staphylococcus aureus; clinical isolate F-2) was under 0.4 µg/mL and the MIC (Staphylococcus aureus; clinical isolate F-3) was under 0.4 µg/mL. It also gave an MIC (Staphylococcus aureus; clinical isolate F-4) of under 0.4 µg/mL, an MIC (Staphylococcus aureus; clinical isolate F-5) of 0.78 µg/mL and an MIC (Staphylococcus aureus; clinical isolate MS 8588) of under 0.4 µg/mL. For the same compound, the MIC (Staphylococcus aureus; clinical isolate MS 8596) was under 0.4 µg/mL, the MIC (Staphylococcus aureus; clinical isolate MS 8619) was under 0.4 µg/mL and the MIC (Staphylococcus aureus; clinical isolate MS 8684) was under 0.4 µg/mL. It also gave an MIC (Staphylococcus aureus; clinical isolate MS 8713) of under 0.4 µg/mL, an MIC (Klebsiella pneumoniae [4]; clinical isolate GN 917) of 1.56 µg/mL and an MIC (Klebsiella pneumoniae [4]; clinical isolate GN 4081) of 3.13 µg/mL. The MIC (Klebsiella pneumoniae [4]; clinical isolate GN 4117) was 3.13 µg/mL.
